Laboratory results from ChEMBL document CHEMBL5625215, “Antiproliferative activity of meso-substituted BODIPY photocages: Effect of electrophiles vs singlet oxygen” (Eur J Med Chem, 2023).
Calls of active or inactive are those of the source. No cut-off for these calls is given here.

Columns and labels:
[1] = Drug localization in lipid droplets of human NCI-H460 cells at 10 uM incubated for 30 mins by Hoechst 33342 staining based confocal microscopic analysis; assay type: ADME, subcellular, Lipid droplet; conditions: nci-h460, 0.5 h
HCT-116 [2] = experiment: Induction of ROS generation in human HCT-116 cells at 5 uM incubated for 1 hrs under dark condition by DCFH-DA staining based fluorescence analysis; assay type: functional, cell-based
NCI-H460 [3] = experiment: Antiproliferative activity against human NCI-H460 cells assessed as inhibition of cell growth incubated for 72 hrs under dark condition by MTT assay; assay type: functional, cell-based; conditions: NCI-H460, 72 h
HEK-293T [4] = experiment: Induction of apoptosis in HEK293T cells assessed as dye bleaching irradiated with visible light by Hoechst 33342 staining based confocal microscopic analysis; assay type: toxicity, cell-based; conditions: human
[5] = Cytotoxicity against human HaCaT cells assessed as inhibition of cell growth incubated for 72 hrs under dark condition by MTT assay; assay type: toxicity, cell-based
[6] = Fluorescence property of compound in CH3CN assessed as fluorescence quantum yield by spectrofluorometric analysis; assay type: physicochemical
NCI-H460 [7] = experiment: Induction of cell death in human NCI-H460 cells assessed as dye bleaching at 1 uM preincubated for 30 mins followed by light irradiation for 15 to 30 mins by Hoechst 33342 staining based confocal microscopic analysis; assay type: functional; conditions: time 45-60 min
MCF7 [8] = experiment: Antiproliferative activity against human MCF7 cells assessed as inhibition of cell growth incubated for 72 hrs under dark condition by MTT assay; assay type: functional, cell-based; conditions: MCF7, 72 h
[9] = Drug localization in cytoplasm of human NCI-H460 cells at 10 uM incubated for 30 mins by Hoechst 33342 staining based confocal microscopic analysis; assay type: ADME, subcellular; conditions: nci-h460, 0.5 h
[10] = Drug localization in golgi body of human NCI-H460 cells at 10 uM incubated for 30 mins by Hoechst 33342 staining based confocal microscopic analysis; assay type: ADME, subcellular; conditions: nci-h460, 0.5 h
[11] = Cytotoxicity against HEK293T cells assessed as inhibition of cell growth incubated for 72 hrs under photoirradiation with 6 cool white lamps for 15 mins at 4,28 and 52 hrs after compound addition by MTT assay; assay type: toxicity, cell-based, HEK-293T; conditions: human
NCI-H460 [12] = experiment: Induction of cell death in human NCI-H460 cells assessed as cell shrinkage at 1 uM preincubated for 30 mins followed by light irradiation for 15 to 30 mins by Hoechst 33342 staining based confocal microscopic analysis; assay type: functional; conditions: time 45-60 min
HCT-116 [13] = experiment: Induction of ROS generation in human HCT-116 cells assessed as increase in oxidative stress at 5 uM preincubated with compound for 1 hrs followed by photoirradiation with 6 cool white lamps by DCFH-DA staining based fluorescence analysis; assay type: functional, cell-based
MCF7 [14] = experiment: Antiproliferative activity against human MCF7 cells assessed as inhibition of cell growth incubated for 72 hrs under photoirradiation with 6 cool white lamps for 15 mins at 4,28 and 52 hrs after compound addition by MTT assay; assay type: functional, cell-based; conditions: MCF7, light or radiation study
NCI-H460 [15] = experiment: Antiproliferative activity against human NCI-H460 cells assessed as inhibition of cell growth incubated for 72 hrs under photoirradiation with 6 cool white lamps for 15 mins at 4,28 and 52 hrs after compound addition by MTT assay; assay type: functional, cell-based; conditions: NCI-H460, light or radiation study
HEK-293T [16] = experiment: Induction of apoptosis in HEK293T cells assessed as cell death irradiated with visible light by Hoechst 33342 staining based confocal microscopic analysis; assay type: toxicity; conditions: human
[17] = Drug localization in endoplasmic reticulum of human NCI-H460 cells at 10 uM incubated for 30 mins by Hoechst 33342 staining based confocal microscopic analysis; assay type: ADME, subcellular; conditions: nci-h460, 0.5 h
HCT-116 [18] = experiment: Antiproliferative activity against human HCT-116 cells assessed as inhibition of cell growth incubated for 72 hrs under dark condition by MTT assay; assay type: functional, cell-based; conditions: HCT-116, 72 h
NCI-H460 [19] = experiment: Induction of cell death in human NCI-H460 cells assessed as shrinkage of nuclear volume at 1 uM preincubated for 30 mins followed by light irradiation for 15 to 30 mins by Hoechst 33342 staining based confocal microscopic analysis; assay type: functional; conditions: time 45-60 min
NCI-H460 [20] = experiment: Induction of cell death in human NCI-H460 cells assessed as membrane blebbing at 1 uM preincubated for 30 mins followed by light irradiation for 15 to 30 mins by Hoechst 33342 staining based confocal microscopic analysis; assay type: functional; conditions: time 45-60 min
[21] = Cytotoxicity against human HaCaT cells assessed as inhibition of cell growth incubated for 72 hrs under photoirradiation with 6 cool white lamps for 15 mins at 4,28 and 52 hrs after compound addition by MTT assay; assay type: toxicity, cell-based
HCT-116 [22] = experiment: Antiproliferative activity against human HCT-116 cells assessed as inhibition of cell growth incubated for 72 hrs under photoirradiation with 6 cool white lamps for 15 mins at 4,28 and 52 hrs after compound addition by MTT assay; assay type: functional, cell-based; conditions: HCT-116, light or radiation study
[23] = Cytotoxicity against HEK293T cells assessed as inhibition of cell growth incubated for 72 hrs under dark condition by MTT assay; assay type: toxicity, cell-based, HEK-293T; conditions: human
[24] = Drug localization in nuclear membrane of human NCI-H460 cells at 10 uM incubated for 30 mins by Hoechst 33342 staining based confocal microscopic analysis; assay type: ADME, cell membranes; conditions: nci-h460, 0.5 h
[25] = Absorption property of compound in CH3CN assessed as maximal wavelength by UV-vis spectrophotometer; assay type: physicochemical
[26] = Absorption property of compound in CH3CN assessed as maximal molar absorption coefficient by UV-vis spectrophotometer; assay type: physicochemical
[27] = Emission property of compound in CH3CN assessed as maximal wavelength by […]; assay type: physicochemical
[28] = Drug uptake in HEK293T cells by fluorescence microscopic analysis; assay type: ADME, cell-based; conditions: human, hek-293t
[29] = Drug localization in nuclear membrane of human NCI-H460 cells incubated for 30 mins by Hoechst 33342 staining based confocal microscopic analysis; assay type: ADME, cell membranes; conditions: nci-h460, 0.5 h
[30] = Drug localization in cytoplasm of human NCI-H460 cells incubated for 30 mins by Hoechst 33342 staining based confocal microscopic analysis; assay type: ADME, subcellular; conditions: nci-h460, 0.5 h
NCI-H460 [31] = experiment: Induction of cell death in human NCI-H460 cells assessed as shrinkage of nuclear volume preincubated for 30 mins followed by light irradiation for 15 to 30 mins by Hoechst 33342 staining based confocal microscopic analysis; assay type: functional; conditions: time 45-60 min
[32] = Induction of singlet oxygen production in CH3CN assessed as decrease in fluorescence intensity at 450 nm under photoirradiation with visible light and measured after 45 sec by DPBF based assay relative to control; assay type: functional; set-up: scale not given: the % may be the effect or the level left
[33] = Induction of singlet oxygen production in CH3CN assessed as decrease in fluorescence intensity at 450 nm under photoirradiation with visible light and measured after 15 sec by DPBF based assay relative to control; assay type: functional; set-up: scale not given: the % may be the effect or the level left
[34] = Induction of singlet oxygen production in CH3CN assessed as decrease in fluorescence intensity at 450 nm under photoirradiation with visible light and measured after 30 sec by DPBF based assay relative to control; assay type: functional; set-up: scale not given: the % may be the effect or the level left
NCI-H460 [35] = experiment: Induction of cell death in human NCI-H460 cells assessed as cell shrinkage preincubated for 30 mins followed by light irradiation for 15 to 30 mins by Hoechst 33342 staining based confocal microscopic analysis; assay type: functional; conditions: time 45-60 min
[36] = Drug localization in golgi body of human NCI-H460 cells incubated for 30 mins by Hoechst 33342 staining based confocal microscopic analysis; assay type: ADME, subcellular; conditions: nci-h460, 0.5 h
[37] = Drug localization in lipid droplets of human NCI-H460 cells incubated for 30 mins by Hoechst 33342 staining based confocal microscopic analysis; assay type: ADME, subcellular, Lipid droplet; conditions: nci-h460, 0.5 h
[38] = Induction of singlet oxygen production in CH3CN assessed as singlet oxygen quantum yield at 450 nm under photoirradiation with visible light and measured after 15 to 60 sec by DPBF based assay; assay type: functional; conditions: time 15-60 sec
NCI-H460 [39] = experiment: Induction of cell death in human NCI-H460 cells assessed as dye bleaching preincubated for 30 mins followed by light irradiation for 15 to 30 mins by Hoechst 33342 staining based confocal microscopic analysis; assay type: functional; conditions: time 45-60 min
[40] = Drug localization in endoplasmic reticulum of human NCI-H460 cells incubated for 30 mins by Hoechst 33342 staining based confocal microscopic analysis; assay type: ADME, subcellular; conditions: nci-h460, 0.5 h
NCI-H460 [41] = experiment: Induction of cell death in human NCI-H460 cells assessed as membrane blebbing preincubated for 30 mins followed by light irradiation for 15 to 30 mins by Hoechst 33342 staining based confocal microscopic analysis; assay type: functional; conditions: time 45-60 min
[42] = Fluorescence property of compound in CH3OH assessed as fluorescence quantum yield; assay type: physicochemical
[43] = Induction of singlet oxygen production in CH3CN assessed as decrease in fluorescence intensity at 455 nm under photoirradiation with visible light and measured after 1 min by DPBF based assay relative to control; assay type: functional; set-up: scale not given: the % may be the effect or the level left
[44] = Induction of singlet oxygen production in CH3CN assessed as decrease in fluorescence intensity at 455 nm under photoirradiation with visible light and measured after 30 sec by DPBF based assay relative to control; assay type: functional; set-up: scale not given: the % may be the effect or the level left
[45] = Induction of singlet oxygen production in CH3CN assessed as singlet oxygen quantum yield; assay type: functional
[46] = Induction of singlet oxygen production in CH3CN assessed as decrease in fluorescence intensity at 455 nm under photoirradiation with visible light and measured after 45 sec by DPBF based assay relative to control; assay type: functional; set-up: scale not given: the % may be the effect or the level left
[47] = Induction of singlet oxygen production in CH3CN assessed as decrease in fluorescence intensity at 455 nm under photoirradiation with visible light and measured after 15 sec by DPBF based assay relative to control; assay type: functional; set-up: scale not given: the % may be the effect or the level left

| SMILES | IC50 (NCI-H460 [3]) | Activity (HEK-293T [4]) | IC50 at 72 h [5] | Activity [6] | IC50 (MCF7 [8]) | IC50 at 72 h [11] | IC50 (MCF7 [14]) | IC50 (NCI-H460 [15]) | Activity (HEK-293T [16]) | IC50 (HCT-116 [18]) | IC50 at 72 h [21] | IC50 (HCT-116 [22]) | IC50 at 72 h [23] | Activity [25] | Activity [26] | Activity [27] | Drug uptake [28] | also measured |
| --- | --- | --- | --- | --- | --- | --- | --- | --- | --- | --- | --- | --- | --- | --- | --- | --- | --- | --- |
| CC1=CC(C)=[N+]2C1=C(CO)c1c(C)cc(C)n1[B-]2(C)C | > 100000 nM | Toxic | 68000 nM | 0.32 | > 100000 nM | 300 nM | 150 nM | 170 nM | Toxic | > 100000 nM | 300 nM | 170 nM | 38000 nM | 505 nm | 88894 M⁻¹ cm⁻¹ | 517 nm | Active | Drug uptake [1]: Active; Activity (HCT-116 [2]): inactive; Activity (NCI-H460 [7]): Active; Drug uptake [9]: Active; Drug uptake [10]: Active; Activity (NCI-H460 [12]): Active; Activity (HCT-116 [13]): Active; Drug uptake [17]: Active; Activity (NCI-H460 [19]): Active; Activity (NCI-H460 [20]): Active; Drug uptake [24]: Active |
| COc1cccc(COC(C)=O)c1OCC1=C2C(C)=C(Br)C(C)=[N+]2[B-](C)(C)n2c(C)c(Br)c(C)c21 | > 100000 nM | Toxic | > 100000 nM | 0.034 | ≥ 100000 nM | 300 nM | 150 nM | 230 nM | Toxic | ≥ 100000 nM | 300 nM | 190 nM | ≥ 100000 nM | 530 nm | 59622 M⁻¹ cm⁻¹ | 559 nm | Active | Drug uptake [29]: Active; Drug uptake [30]: Active; Activity (NCI-H460 [31]): Active; Activity [32]: 99.9%; Activity [33]: 63%; Activity [34]: 91.8%; Activity (NCI-H460 [35]): Active; Drug uptake [36]: Active; Drug uptake [37]: Active; Activity [38]: 0.73; Activity (NCI-H460 [39]): Active; Drug uptake [40]: Active; Activity (NCI-H460 [41]): Active |
| CCN(CC)c1ccc2c(-c3ccccc3C(=O)O)c3ccc(=[N+](CC)CC)cc-3oc2c1.[Cl-] [RHODAMINE] | – | – | – | – | – | – | – | – | – | – | – | – | – | – | – | – | – | Activity [42]: 0.66 |
| C1=Cc2nc1c(-c1ccccc1)c1ccc([nH]1)c(-c1ccccc1)c1nc(c(-c3ccccc3)c3ccc([nH]3)c2-c2ccccc2)C=C1 | – | – | – | – | – | – | – | – | – | – | – | – | – | – | – | – | – | Activity [43]: 95.1%; Activity [44]: 63%; Activity [45]: 0.5; Activity [46]: 84.2%; Activity [47]: 43.3% |
